Four compounds from ChEMBL document CHEMBL1201862, “PubChem BioAssay data set” (2004) can be followed below.

Test systems include COLO 205; MDA-MB-435; CAKI-1; EKVX; NCI-H460; RXF 393; HCT-15; SN12C; MDA-N; OVCAR-5; BT-549; DU-145; HCC 2998; KM12; M14; RPMI-8226; U-251; NCI-H522; MDA-MB-231.
Holding throughout (assay): inhibition of tumour cell growth, NCI panel, 48 h

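1) Cells in 96-well plates. 2) Compound, 48 h, 5 concentrations. 3) Linear interpolation between surrounding doses. 4) Unreached endpoint = highest concentration. At the GI50, growth is halved.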 Active and inactive are the calls of the source. No stated cut-off is given here; in the data, active = GI50 up to about 1.1 µM and inactive = higher.

As to `COc1cc(OCc2nc3ccccc3n3cccc23)cc(OC)c1OC`, the GI50 was 16.8 µM (inactive) in the test with COLO 205; 16 µM (inactive) in the test with MDA-MB-435; 29.7 µM (inactive) in the test with CAKI-1; 14.8 µM (inactive) with EKVX; 20.5 µM (inactive) with NCI-H460; > 100 µM (inactive) with RXF 393. Further, the GI50 with HCT-15 was 8.09 µM; with SN12C it was 47 µM (inactive); in the test on MDA-N it was 19.4 µM (inactive); in the test on OVCAR-5 it was > 52 µM (inactive); in the test with BT-549, 19.7 µM (inactive); in the test with DU-145, 55.8 µM (inactive). For the same compound, the GI50 in the test with HCC 2998 was 43.8 µM (inactive); with KM12, 15.9 µM (inactive); with M14, 20.7 µM (inactive); in the test on RPMI-8226 it was 1.34 µM (inactive); in the test with U-251 it was 23.3 µM (inactive); in the test on NCI-H522, 13.1 µM (inactive). Moreover, in the test with MDA-MB-231, the GI50 was 40.6 µM (inactive).

With `CCOC(=O)/C=C\c1c(Cl)n(-c2ccccc2)c(=O)n(-c2ccccc2)c1=O`, the GI50 is 18.5 µM (inactive) with COLO 205; 22.1 µM (inactive) with MDA-MB-435; 19.5 µM (inactive) in the test with CAKI-1; 21 µM (inactive) in the test with EKVX; 18 µM (inactive) in the test on NCI-H460; 17.9 µM (inactive) with RXF 393. Also, the GI50 with HCT-15 was 19.8 µM; in the test on SN12C, 19.6 µM (inactive); in the test with MDA-N, 17 µM (inactive); in the test with OVCAR-5 it was 20.6 µM (inactive); with BT-549, 20.2 µM (inactive); with DU-145 it was 18.8 µM (inactive). Besides, the GI50 is 18.5 µM (inactive) in the test with HCC 2998; 19.1 µM (inactive) in the test with KM12; 18.7 µM (inactive) with M14; > 10 µM (inactive) in the test with RPMI-8226; 32 µM (inactive) with U-251; 18.1 µM (inactive) in the test on NCI-H522. Further, the GI50 in the test with MDA-MB-231 was 21.2 µM (inactive).

Regarding `COc1ccc(N2C(=O)CC(c3c[nH]c4ncccc34)C2=O)cc1` (stereo unspecified), the GI50 was 18.8 µM (inactive) in the test with COLO 205; 14.4 µM (inactive) in the test on MDA-MB-435; 19.7 µM (inactive) in the test on CAKI-1; 37.1 µM (inactive) in the test with EKVX; > 100 µM (inactive) in the test with NCI-H460; 23.9 µM (inactive) in the test on RXF 393. Further, the GI50 was 24.8 µM in the test with HCT-15; 18.5 µM (inactive) in the test with SN12C; 14.2 µM (inactive) with MDA-N; 63.2 µM (inactive) in the test with OVCAR-5; 17.5 µM (inactive) with BT-549; > 100 µM (inactive) with DU-145. Also, the GI50 in the test on HCC 2998 is > 100 µM (inactive); in the test on KM12 it was > 100 µM (inactive); in the test on M14 it was 23 µM (inactive); in the test on RPMI-8226, > 100 µM (inactive); in the test with U-251, > 100 µM (inactive); with NCI-H522, 7.98 µM (inactive). Besides, the GI50 with MDA-MB-231 was 20 µM (inactive).

For the compound `Cc1ccc(OCCn2cc(Nc3ccccc3)c(=O)n(CCOc3ccc(C)cc3)c2=O)cc1`, the GI50 in the test on COLO 205 was > 100 µM (inactive); in the test on MDA-MB-435, > 100 µM (inactive); in the test with CAKI-1, > 100 µM (inactive); in the test on EKVX, > 100 µM (inactive); in the test on NCI-H460, > 100 µM (inactive); in the test with RXF 393, 23.5 µM (inactive). For the same compound, the GI50 in the test on HCT-15 was over 100 µM; in the test with SN12C it was > 100 µM (inactive); in the test with MDA-N, > 100 µM (inactive); in the test on OVCAR-5, > 100 µM (inactive); in the test with BT-549, > 100 µM (inactive); in the test on DU-145, > 100 µM (inactive). For the same compound, the GI50 in the test with HCC 2998 is > 100 µM (inactive); with KM12, > 100 µM (inactive); with M14 it was > 100 µM (inactive); in the test on RPMI-8226, > 100 µM (inactive); with U-251, 51.6 µM (inactive); in the test with NCI-H522, 97.7 µM (inactive). The GI50 in the test with MDA-MB-231 was 69.5 µM (inactive).
